Source: patent publication US12410164B2, “Heterocyclic compounds and medical use thereof” (FONDAZIONE TELETHON, priority 2018, dated 2025)

Target: F508del-CFTR (Homo sapiens, UniProt P13569, DEL508-508)
Assay: HS-YFP kinetic fluorescence (iodide quenching rate) assay in CFBE41o− cells
Format: cell-based
Design: expressed in transfected cells; host or cells: CFBE41o- cells with expression of F508del-CFTR and HS-YFP (generated as in Sondo et al. 2011)
Conditions: for AI additivity index: Table 1a; for AI additivity index / AI (%) additivity index: compound at 10 μM plus VX-809, (QRTOT − QRVX)/QRVX; for structure-activity comparison of corrector potency/activity: relative to the analogue; for AI (%) additivity index: Table 1, HS-YFP assay
Description: CFBE41o- cells, with expression of F508del-CFTR and halogen-sensitive fluorescent protein, were generated as previously described (Sondo E, et al. Am J Physiol. 2011, 301, […]-[…]). For the test, the cells were seeded in 96-well microplates using a culture medium consisting of DMEM and Ham's F12 (1:1) supplemented with 10% foetal bovine serum. After 24 hours from seeding, the cells were treated for another 24 hours with the test compounds dissolved in the culture medium at the desired concentrations. As a negative control, the solvent of the compounds (dimethyl sulfoxide, DMSO) dissolved in the medium with the same dilution ratio (final percentage of DMSO:0.1-0.2%) was used. As a positive control, the corrector VX-809 (Selleck Chemicals, […]) was used at a concentration of 1 μM. After treatment, the medium with the compounds was removed and the cells were stimulated with forskolin (Sigma-Aldrich, F6886) 20 μM plus genistein (Sigma-Aldrich, G6649) 50 μM (in 60 μl of PBS saline) to maximally activate the CFTR channels present in the membrane. In a microplate reader (FLUOstar-Omega, BMG) the fluorescence of the cells in each well was read for 14 seconds, with an injection of 165 μl of a iodide-enriched saline (modified PBS where NaCl, 137 mM, has been replaced with the same concentration of NaI). The iodide transport activity in each well was evaluated by subtraction of the background fluorescence (measured in a well without cells), subsequent normalization with respect to the initial fluorescence and finally by interpolation of the fluorescence quenching phase with an exponential function that allows the derivation of the maximum slope (quenching rate, QR). The activity of the synthesized compounds was initially evaluated on the CFBE41o- cell line with expression of the mutated F508del-CFTR protein described above (Sondo E, et al. Am J Physiol. 2011, 301, […]-[…]). For this purpose, a functional assay based on the fluorescent YFP protein sensitive to halides, HS-YFP, was used (Galietta L J, et al. J Biol Chem. 2001, 276, 19723-19728). The fluorescence of the HS-YFP protein is turned off by iodide. Therefore, if exposed to a solution containing iodide, cells with HS-YFP expression show a quenching speed of the fluorescence which depends on the presence and activity of anionic channels. Under control conditions, the mutated CFTR protein presents a serious defect of stability and maturation, so it remains trapped in the endoplasmic reticulum not reaching the cell surface in enough quantity. In the HS-YFP-based assay, this defect results in a low anion transport capacity and therefore in a low quenching rate (QR). Treatment for a prolonged time (e.g. 24 hours) with a corrector determines an improvement in protein maturation with an increase in the number of CFTR channels present in the membrane and therefore an increase in the flux of iodide and QR. In a first phase, the authors screened about 200 heterocyclic molecules with various nitrogenated tricyclic scaffolds. Conditions previously described have been used for screening (Sondo E, et al. Am J Physiol. 2011, 301, […]-[…]) and reported herein in the Materials and Methods section. A threshold equal to the average value plus three times the standard deviation of the QR of wells without compounds (only DMSO in the culture medium) was used as a criterion for the selection of active compounds.

Chain of F508del-CFTR (P13569 with tags, fused parts or gaps DEL508-508): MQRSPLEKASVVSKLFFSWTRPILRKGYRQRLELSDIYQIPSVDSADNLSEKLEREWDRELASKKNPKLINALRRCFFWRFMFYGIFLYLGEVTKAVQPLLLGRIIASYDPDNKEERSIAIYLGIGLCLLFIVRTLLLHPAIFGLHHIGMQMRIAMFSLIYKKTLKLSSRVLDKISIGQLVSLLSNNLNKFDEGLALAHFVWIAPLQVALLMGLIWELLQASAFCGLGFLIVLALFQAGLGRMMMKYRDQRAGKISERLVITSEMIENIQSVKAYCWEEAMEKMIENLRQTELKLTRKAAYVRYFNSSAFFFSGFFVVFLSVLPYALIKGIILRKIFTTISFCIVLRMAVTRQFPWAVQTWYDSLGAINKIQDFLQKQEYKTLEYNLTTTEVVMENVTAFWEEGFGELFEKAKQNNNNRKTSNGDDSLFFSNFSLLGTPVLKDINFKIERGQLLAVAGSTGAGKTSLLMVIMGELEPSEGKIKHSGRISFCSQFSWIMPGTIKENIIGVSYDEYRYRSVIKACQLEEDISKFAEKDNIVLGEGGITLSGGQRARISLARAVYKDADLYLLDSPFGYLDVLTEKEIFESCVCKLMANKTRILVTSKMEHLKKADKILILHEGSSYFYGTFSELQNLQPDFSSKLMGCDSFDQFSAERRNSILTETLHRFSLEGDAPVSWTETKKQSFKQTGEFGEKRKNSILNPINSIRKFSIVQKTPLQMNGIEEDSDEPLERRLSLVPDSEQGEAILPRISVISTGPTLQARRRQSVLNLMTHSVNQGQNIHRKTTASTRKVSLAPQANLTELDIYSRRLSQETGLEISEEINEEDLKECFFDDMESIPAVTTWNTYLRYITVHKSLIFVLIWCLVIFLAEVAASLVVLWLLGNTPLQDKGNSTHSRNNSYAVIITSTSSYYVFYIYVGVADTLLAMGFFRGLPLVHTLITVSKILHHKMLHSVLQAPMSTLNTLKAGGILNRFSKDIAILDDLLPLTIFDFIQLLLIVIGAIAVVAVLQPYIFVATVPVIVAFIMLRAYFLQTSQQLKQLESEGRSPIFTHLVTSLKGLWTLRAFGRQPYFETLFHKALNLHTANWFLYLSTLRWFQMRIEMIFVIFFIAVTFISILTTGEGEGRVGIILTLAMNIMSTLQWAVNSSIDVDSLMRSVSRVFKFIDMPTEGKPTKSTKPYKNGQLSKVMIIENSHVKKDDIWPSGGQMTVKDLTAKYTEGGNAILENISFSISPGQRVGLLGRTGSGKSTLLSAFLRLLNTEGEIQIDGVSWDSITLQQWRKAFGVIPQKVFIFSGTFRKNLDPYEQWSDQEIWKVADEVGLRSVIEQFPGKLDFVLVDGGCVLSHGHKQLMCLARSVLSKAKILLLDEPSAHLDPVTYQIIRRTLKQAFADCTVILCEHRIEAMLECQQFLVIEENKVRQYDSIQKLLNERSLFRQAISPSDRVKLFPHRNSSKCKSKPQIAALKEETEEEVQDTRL

Row | Structure (SMILES) | AI (%) additivity index | other results
1 | CCOC(=O)c1c(Br)c2ccc3cc(S(=O)(=O)c4ccccc4)c(=O)[nH]c3c2n1Cc1ccc(C)cc1 [13 (PP057), Ethyl 7-(benzenesulfonyl)-3-bromo-1-[(4-methylphenyl)methyl]-8-oxo-8,9-dihydro-1H-pyrrolo[3,2-h]quinoline-2-carboxylate] |  | AI additivity index: 272%; structure-activity comparison of corrector potency/activity: Increased activity
2 | CCOC(=O)c1cc2ccc3cc(S(=O)(=O)c4ccccc4)c(=O)[nH]c3c2n1Cc1ccc(C)cc1 [14 (PP058), Ethyl 1-(4-methylbenzyl)-8-oxo-7-(phenylsulfonyl)-8,9-dihydro-1H-pyrrolo[3,2-h]quinoline-2-carboxylate] |  | AI additivity index: 177%
3 | CCOC(=O)c1cc2c(n1Cc1ccc(C)cc1)-c1[nH]c(=O)c(S(=O)(=O)c3ccccc3)cc1CC2 [PP007] | 169% | AI additivity index in the example of FIG. 1 (10 μM, with VX-809 1 μM, 24 h): 74%; F508del-CFTR activity (quenching rate) versus DMSO control (compound alone, 24 h treatment): significant increase in F508del-CFTR activity; F508del-CFTR activity (quenching rate) of combination with VX-809 (compound plus VX-809 1 μM, 24 h): greater than the sum of the single effects; screening outcome (QR above mean plus three SD of DMSO wells) (screen of about 200 heterocyclic molecules): active
4 | CCOC(=O)c1cc2c(n1C)-c1[nH]c(=O)c(S(=O)(=O)c3ccccc3)cc1CC2 [PP010] | 95% | structure-activity comparison of corrector potency/activity: causes a reduction in activity
5 | CCOC(=O)c1cc2c(n1Cc1cccc(C)c1)-c1[nH]c(=O)c(S(=O)(=O)c3ccccc3)cc1CC2 [PP016, Ethyl 1-(3-methylbenzyl)-8-oxo-7-(phenylsulfonyl)-4,5,8,9-tetrahydro-1H-pyrrolo[3,2-h]quinoline-2-carboxylate] | 42% | 
6 | CCOC(=O)c1cc2c(n1Cc1ccc(Cl)cc1)-c1[nH]c(=O)c(S(=O)(=O)c3ccccc3)cc1CC2 [PP017, Ethyl 1-(4-chlorobenzyl)-8-oxo-7-(phenylsulfonyl)-4,5,8,9-tetrahydro-1H-pyrrolo[3,2-h]quinoline-2-carboxylate] | 203% | 
7 | Cc1ccc(Cn2c(C(=O)OC(C)C)cc3c2-c2[nH]c(=O)c(S(=O)(=O)c4ccccc4)cc2CC3)cc1 [PP022, Propan-2-yl 7-(benzenesulfonyl)-1-[(4-methylphenyl)methyl]-8-oxo-4,5,8,9-tetrahydro-1H-pyrrolo[3,2-h]quinoline-2-carboxylate] | 279% | 
8 | CCOC(=O)c1cc2c(n1Cc1ccc(C)cc1)-c1[nH]c(=O)c(S(=O)(=O)c3ccc(C)cc3)cc1CC2 [PP023, Ethyl 7-(4-methylbenzene-1-sulfonyl)-1-[(4-methylphenyl)methyl]-8-oxo-4,5,8,9-tetrahydro-1H-pyrrolo[3,2-h]quinoline-2-carboxylate] | 89% | 
9 | CCOC(=O)c1cc2c(n1Cc1ccc(C)cc1)-c1[nH]c(=O)c(S(C)(=O)=O)cc1CC2 [PP024, Ethyl 7-(metansulfonyl)-1-[(4-methylphenyl)methyl]-8-oxo-4,5,8,9-tetrahydro-1H-pyrrolo[3,2-h]quinoline-2-carboxylate] | 11% | 
10 | CCOC(=O)c1cc2c(n1Cc1ccc(C)c(C)c1)-c1[nH]c(=O)c(S(=O)(=O)c3ccccc3)cc1CC2 [PP025, Ethyl 7-(benzenesulfonyl)-1-[(3,4-dimethylphenyl)methyl]-8-oxo-4,5,8,9-tetrahydro-1H-pyrrolo[3,2-h]quinoline-2-carboxylate] | 178% | 
11 | CCOC(=O)c1c(Br)c2c(n1Cc1ccc(C)cc1)-c1[nH]c(=O)c(S(=O)(=O)c3ccc(C)cc3)cc1CC2 [PP035, Ethyl 3-bromo-7-(4-methylbenzene-1-sulfonyl)-1-[(4-methylphenyl)methyl]-8-oxo-4,5,8,9-tetrahydro-1H-pyrrolo[3,2-h]quinoline-2-carboxylate] | 56% | 

The next lines start with results.

Row | AI (%) additivity index | Structure (SMILES) | other results
12 | 150% | CCOC(=O)c1cc2c(n1Cc1ccccc1)-c1[nH]c(=O)c(S(=O)(=O)c3ccccc3)cc1CC2 [PP011] | structure-activity comparison of corrector potency/activity: causes a reduction in activity
13 | 124% | CCOC(=O)c1cc2c(n1Cc1ccccc1C)-c1[nH]c(=O)c(S(=O)(=O)c3ccccc3)cc1CC2 [PP015, Ethyl 1-(2-methylbenzyl)-8-oxo-7-(phenylsulfonyl)-4,5,8,9-tetrahydro-1H-pyrrolo[3,2-h]quinoline-2-carboxylate] | 
14 | 29% | COC(=O)c1cc2c(n1Cc1ccc(C)cc1)-c1[nH]c(=O)c(S(=O)(=O)c3ccccc3)cc1CC2 [PP019, Methyl 1-(4-methylbenzyl)-8-oxo-7-(phenylsulfonyl)-4,5,8,9-tetrahydro-1H-pyrrolo[3,2-h]quinoline-2-carboxylate] | 
15 | 33% | COC(=O)c1cc2c(n1Cc1ccccc1C)-c1[nH]c(=O)c(S(=O)(=O)c3ccccc3)cc1CC2 [PP020, Methyl 1-(2-methylbenzyl)-8-oxo-7-(phenylsulfonyl)-4,5,8,9-tetrahydro-1H-pyrrolo[3,2-h]quinoline-2-carboxylate] | 
16 | 40% | CCOC(=O)c1cc2c(n1Cc1ccc(C)cc1C)-c1[nH]c(=O)c(S(=O)(=O)c3ccccc3)cc1CC2 [PP021, Ethyl 7-(benzenesulfonyl)-1-[(2,4-dimethylphenyl)methyl]-8-oxo-4,5,8,9-tetrahydro-1H-pyrrolo[3,2-h]quinoline-2-carboxylate] | 
17 | 185% | CCOC(=O)c1c(Br)c2c(n1Cc1ccccc1C)-c1[nH]c(=O)c(S(=O)(=O)c3ccccc3)cc1CC2 [PP027, Ethyl 3-bromo 1-(2-methylbenzyl)-8-oxo-7-(phenylsulfonyl)-4,5,8,9-tetrahydro-1H-pyrrolo[3,2-h]quinoline-2-carboxylate] | structure-activity comparison of corrector potency/activity: potency comparable to that of PP008
18 | 46% | CCOC(=O)c1c(Br)c2c(n1Cc1ccc(Cl)cc1)-c1[nH]c(=O)c(S(=O)(=O)c3ccccc3)cc1CC2 [PP029, Ethyl 3-bromo 1-(4-chlorobenzyl)-8-oxo-7-(phenylsulfonyl)-4,5,8,9-tetrahydro-1H-pyrrolo[3,2-h]quinoline-2-carboxylate] | 
19 | 96% | CCOC(=O)c1c(Br)c2c(n1Cc1cccc(C)c1)-c1[nH]c(=O)c(S(=O)(=O)c3ccc(Cl)cc3)cc1CC2 [PP030, Ethyl 3-bromo-7-[(4-chlorophenyl)sulfonyl]-1-(3-methylbenzyl)-8-oxo-4,5,8,9-tetrahydro-1H-pyrrolo[3,2-h]quinoline-2-carboxylate] | 
20 | 39% | COC(=O)c1c(Br)c2c(n1Cc1ccc(C)cc1)-c1[nH]c(=O)c(S(=O)(=O)c3ccccc3)cc1CC2 [PP031, Methyl 3-bromo-1-(4-methylbenzyl)-8-oxo-7-(phenylsulfonyl)-4,5,8,9-tetrahydro-1H-pyrrolo[3,2-h]quinoline-2-carboxylate] | 
21 | 133% | COC(=O)c1c(Br)c2c(n1Cc1ccccc1C)-c1[nH]c(=O)c(S(=O)(=O)c3ccccc3)cc1CC2 [PP032, Methyl 3-bromo-1-(2-methylbenzyl)-8-oxo-7-(phenylsulfonyl)-4,5,8,9-tetrahydro-1H-pyrrolo[3,2-h]quinoline-2-carboxylate] | 
22 | 114% | CCOC(=O)c1c(Br)c2c(n1Cc1ccc(C)cc1C)-c1[nH]c(=O)c(S(=O)(=O)c3ccccc3)cc1CC2 [PP033, Ethyl 7-(benzenesulfonyl)-3-bromo-1-[(2,4-dimethylphenyl)methyl]-8-oxo-4,5,8,9-tetrahydro-1H-pyrrolo[3,2-h]quinoline-2-carboxylate] | structure-activity comparison of corrector potency/activity: reduction in activity compared to PP008
